Data as given in patent US9695155B2, “Herbicidal substituted pyrimidinyloxy benzene compounds” (E. I. DU PONT DE NEMOURS AND COMPANY, priority 2013, dated 2017).

Key:
blackgrass = assay: Test C preemergence; type: in vivo, Alopecurus myosuroides; settings: for Blackgrass plant response rating: preemergence; for Plant response rating, Blackgrass: Preemergence, 31 g ai/ha, scale 0 to 100, 0 no effect, 100 complete control
Procedure, shortened: (§1)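 Seeds were sown in loam–sand blend and sprayed preemergence, while plants at 1- to 4-leaf stage (2–18 cm) in peat-based medium received postemergence sprays; test chemicals were formulated in a non-phytotoxic solvent with surfactant. After 13–15 days in a greenhouse, injury was rated visually against controls, 0 (no effect) to 100 (complete control).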

galium = assay: Test C preemergence; type: in vivo, Galium aparine; settings: for Galium plant response rating: preemergence; for Plant response rating, Galium: Preemergence, 31 g ai/ha, scale 0 to 100, 0 no effect, 100 complete control
Procedure, shortened: as §1

waterhemp = assay: Test C preemergence; type: in vivo, Amaranthus rudis; settings: for Waterhemp plant response rating: preemergence; for Plant response rating, Waterhemp: Preemergence, 31 g ai/ha, scale 0 to 100, 0 no effect, 100 complete control
Procedure, shortened: as §1

Italian ryegrass = assay: Test C preemergence; type: in vivo, Lolium multiflorum; settings: for Ryegrass, Italian plant response rating: preemergence; for Plant response rating, Ryegrass, Italian: Preemergence, 31 g ai/ha, scale 0 to 100, 0 no effect, 100 complete control
Procedure, shortened: as §1

morningglory [1] = assay: Test C postemergence; type: in vivo, Ipomoea coccinea; settings: for Plant response rating, Morningglory: scale 0 to 100 (0 no effect, 100 complete control)
Procedure, shortened: as §1

barnyardgrass = assay: Test A postemergence; type: in vivo, Echinochloa crus-galli
Procedure, shortened: (§2)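 Pre- and postemergence greenhouse screen. Soil: loam + sand. Spray carrier: solvent mixture, non-phytotoxic, with surfactant. Post timing at 1–2 leaves, height 2–10 cm. Readout: visual injury on a 0–100 scale roughly 10 days after application, untreated plants as reference.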

large (Lg) crabgrass = assay: Test A preemergence; type: in vivo, Digitaria sanguinalis; settings: for Crabgrass, Large plant response rating: 500 g ai/ha, approx. 10 days
Procedure, shortened: as §2

Heteranthera limosa = assay: Test B flooded paddy test; type: in vivo; settings: Flood, 250 g ai/ha; 0 to 100 scale where 0 is no effect and 100 is complete control
Procedure, shortened: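 Plants at 2-leaf stage; pots flooded to 3 cm above soil and compound applied directly into paddy water, depth held throughout. After 13 to 15 days in greenhouse, visual rating versus controls on 0 (no effect) to 100 (complete control) scale.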

wheat = assay: Test A postemergence; type: in vivo, Triticum aestivum
Procedure, shortened: as §2

wheat, winter = assay: Test C preemergence; type: in vivo, Triticum aestivum; settings: for Wheat plant response rating: preemergence; for Plant response rating, Wheat: Preemergence, 31 g ai/ha, scale 0 to 100, 0 no effect, 100 complete control
Procedure, shortened: as §1

morningglory [2] = assay: Test C preemergence; type: in vivo, Ipomoea coccinea; settings: for Morningglory plant response rating: preemergence; for Plant response rating, Morningglory: Preemergence, 31 g ai/ha, scale 0 to 100, 0 no effect, 100 complete control
Procedure, shortened: as §1

[3] = 62 g ai/ha, scale 0 (no effect) to 100 (complete control)
[4] = 125 g ai/ha, scale 0 (no effect) to 100 (complete control)
[5] = 250 g ai/ha, scale 0 (no effect) to 100 (complete control)
[6] = Postemergence, 31 g ai/ha, 13 to 15 days
[7] = 125 g ai/ha, 0 to 100 scale where 0 is no effect and 100 is complete control
[8] = 0 to 100 scale, 0 no effect, 100 complete control
[9] = 500 g ai/ha, 0 to 100 scale where 0 is no effect and 100 is complete control
[10] = 16 g ai/ha, scale 0 to 100 (0 no effect, 100 complete control)
[11] = 125 g ai/ha, postemergence, visual rating
[12] = 1000 g ai/ha, 0 to 100 scale, 0 no effect, 100 complete control

Row | Structure (SMILES) | Blackgrass plant response rating (blackgrass; [3]) | Blackgrass plant response rating (blackgrass; [4]) | Plant response rating, Blackgrass (blackgrass) | Galium plant response rating (galium; [3]) | Galium plant response rating (galium; [4]) | Plant response rating, Galium (galium) | Waterhemp plant response rating (waterhemp; [3]) | Waterhemp plant response rating (waterhemp; [4]) | Plant response rating, Waterhemp (waterhemp) | Ryegrass, Italian plant response rating (Italian ryegrass; [3]) | Ryegrass, Italian plant response rating (Italian ryegrass; [4]) | Plant response rating, Ryegrass, Italian (Italian ryegrass) | Plant response rating, Morningglory (morningglory [1]; Postemergence, 62 g ai/ha) | Plant response rating, Ducksalad (Heteranthera limosa) | Wheat plant response rating (wheat, winter; [3]) | Wheat plant response rating (wheat, winter; [4]) | Plant response rating, Wheat (wheat, winter) | Morningglory plant response rating (morningglory [2]; [3]) | Morningglory plant response rating (morningglory [2]; [4]) | Plant response rating, Morningglory (morningglory [2]) | further results
1 | N#Cc1cccc(Oc2ncc(F)cn2)c1-n1cc(Cl)cn1 [Compound 73] | 80 | 90 | 0 | 90 | 90 | 85 | 100 | 100 | 100 | 5 | 55 | 0 | 65 | 70 | 0 | 5 | 0 | 45 | 95 | 45 | Blackgrass plant response rating (blackgrass; [5]): 90; Galium plant response rating (galium; [5]): 95; Waterhemp plant response rating (waterhemp; [5]): 100; Ryegrass, Italian plant response rating (Italian ryegrass; [5]): 70; Plant response rating (0 to 100), Morningglory (morningglory [1]; 125 g ai/ha, postemergence): 85; Plant response rating (0 to 100), Morningglory (morningglory [1]; 250 g ai/ha, postemergence): 85; Plant response rating, Morningglory (morningglory [1]; [6]): 65; Plant response rating, Barnyardgrass (barnyardgrass; [7]): 90; Plant response rating, Barnyardgrass (barnyardgrass; 500 g ai/ha, 0 to 100 scale, 0 no effect, 100 complete control): 90; Plant response rating, Crabgrass, Large (large (Lg) crabgrass; [7]): 100; Crabgrass, Large plant response rating (large (Lg) crabgrass; [8]): 100; Plant response rating, Wheat (wheat; [7]): 20; Plant response rating, Wheat (wheat; [9]): 50; Wheat plant response rating (wheat, winter; [5]): 85; Morningglory plant response rating (morningglory [2]; [5]): 98
2 | CCOc1cnn(-c2c(C#N)cccc2Oc2ncc(Cl)cn2)c1 [Compound 92] | 70 | 90 | 5 | 95 | 98 | 85 | 100 | 100 | 98 | 50 | 85 | 10 | 90 | 95 | 30 | 80 | 0 | 98 | 98 | 25 | Blackgrass plant response rating (blackgrass; [10]): 0; Galium plant response rating (galium; [10]): 80; Waterhemp plant response rating (waterhemp; [10]): 95; Ryegrass, Italian plant response rating (Italian ryegrass; [10]): 0; Plant response rating (0 to 100), Morningglory (morningglory [1]; 125 g ai/ha, postemergence): 85; Plant response rating, Morningglory (morningglory [1]; [6]): 85; Plant response rating, Barnyardgrass (barnyardgrass; [7]): 90; Plant response rating, Barnyardgrass (barnyardgrass; [9]): 100; Plant response rating, Crabgrass, Large (large (Lg) crabgrass; [7]): 100; Crabgrass, Large plant response rating (large (Lg) crabgrass; [8]): 100; Plant response rating, Wheat (wheat; [7]): 60; Plant response rating, Wheat (wheat; [9]): 70; Wheat plant response rating (wheat, winter; [10]): 0; Morningglory plant response rating (morningglory [2]; [10]): 10
3 | N#Cc1cnn(-c2c(C#N)cccc2Oc2ncc(F)cn2)c1 [Compound 111] | 40 | 90 | 10 | 100 | 75 | 100 | 100 | 100 | 100 | 40 | 60 | 0 | 80 | 70 | 0 | 20 | 30 | 85 | 100 | 45 | Blackgrass plant response rating (blackgrass; [10]): 20; Galium plant response rating (galium; [10]): 90; Waterhemp plant response rating (waterhemp; [10]): 100; Ryegrass, Italian plant response rating (Italian ryegrass; [10]): 0; Plant response rating, Morningglory (morningglory [1]; [11]): 98; Plant response rating, Barnyardgrass (barnyardgrass; [7]): 60; Plant response rating, Barnyardgrass (barnyardgrass; [9]): 90; Plant response rating, Crabgrass, Large (large (Lg) crabgrass; [7]): 100; Crabgrass, Large plant response rating (large (Lg) crabgrass; [8]): 100; Plant response rating, Wheat (wheat; [9]): 80; Wheat plant response rating (wheat, winter; [10]): 0; Morningglory plant response rating (morningglory [2]; [10]): 20
4 | N#Cc1cn(-c2c(Br)cccc2Oc2ncc(Cl)cn2)nn1 [Compound 116] | 60 | 85 | 10 | 100 | 100 | 100 | 100 | 100 | 100 | 10 | 35 | 0 | 60 | 60 | 0 | 5 | 0 | 20 | 20 | 5 | Blackgrass plant response rating (blackgrass; [10]): 0; Galium plant response rating (galium; [10]): 0; Waterhemp plant response rating (waterhemp; [10]): 100; Ryegrass, Italian plant response rating (Italian ryegrass; [10]): 0; Plant response rating (0 to 100), Morningglory (morningglory [1]; 16 g ai/ha, postemergence, 0 is no effect, 100 is complete control): 50; Plant response rating, Morningglory (morningglory [1]; [11]): 80; Plant response rating, Barnyardgrass (barnyardgrass; [12]): 90; Plant response rating, Crabgrass, Large (large (Lg) crabgrass; [12]): 100; Plant response rating, Wheat (wheat; [12]): 50; Wheat plant response rating (wheat, winter; [10]): 0; Morningglory plant response rating (morningglory [2]; [10]): 0
